Assay results: publication PMC4545913, “Dual EZH2 and EHMT2 histone methyltransferase inhibition increases biological efficacy in breast cancer cells” (Clinical Epigenetics, 2015)

Assays:
Assay type in all cases: cell-based
SUDLH8 = assay: Lymphoma cell growth, cell counting following propidium iodide staining; conditions: EZH2 W.T. (amplified), 48 h, PI negative cell count
Experimental: (§1) For clonogenic assays, cells were treated with compound for 48 h, media were removed and replaced with fresh media for a further 12 days to measure colony formation. For cell viability assays, lymphoma cells were plated at 20,000 cells in 200 μl per well in U-bottom 96 well plates in RPMI medium +20 % FCS. Cells were re-suspended 48 h later, diluted 10-fold in PBS + propidium iodide (PI) and the concentration of PI negative cells was counted using an Attune flow cytometer with autosampler. Breast cancer cells were seeded at a density of 10,000 cells/well in a sterile 96 clear-well plate with 150 μl of DMEM (+10 % FCS and 2 mM L-Glutamine). Each compound treatment was performed in triplicate for 72 h at concentrations of 100 nM and 1, 5, 10 and 50 μM in 100 μl of full-medium. After 72 h, 20 μl of MTT solution (3 mg of MTT Formazan, Sigma/1 ml PBS) was added to the medium and incubated for 4 h at 37 °C in a CO2 incubator. The MTT-product was solubilised with 100 μl DMSO, and for 1 h, incubated in the dark at room temperature. The optical density was read at 570 nm with PHERAstar.

SC1 = assay: as above; conditions: Homo sapiens, SC-1, EZH2 W.T., 48 h, PI negative cell count
Experimental: as §1

WILL1 = assay: as above; conditions: WILL-1, EZH2 W.T., 48 h, PI negative cell count
Experimental: as §1

WSU-FSCLL = assay: as above; conditions: EZH2 W.T., 48 h, PI negative cell count
Experimental: as §1

DOHH2 = assay: as above; conditions: Homo sapiens, DOHH-2, EZH2 W.T., 48 h, PI negative cell count
Experimental: as §1

DB = assay: as above; conditions: Homo sapiens, EZH2 Mutant Y646N, 48 h, PI negative cell count
Experimental: as §1

MDA-MB-231 cells [1] = assay: Caspase 3/7 activity (apoptosis); conditions: MDA-MB-231, dose-dependent (Figure S2)
breast cancer cell lines = assay: MTT anti-proliferative effect on a small panel of breast cancer cell lines; conditions: read-out: Anti-proliferative IC50 values, range over panel
Experimental: The anti-proliferative effect of HKMTI-1-005 on a small panel of breast cancer cell lines was determined, with IC50 values in the range 2–10 μM (Table 3). […] The breast cancer cell line BT-474, which is the cell line most sensitive to HKMTI-1-005 treatment, has the highest relative expression of EZH2, as detected by Western analysis (data not shown).
as §1, with “The MTT-product was solubilised with 100 μl DMSO, and for 1 h, incubated in the dark at room temperature.” left out

MCF10a = assay: MTT cell viability assay, normal breast epithelial cell line; conditions: Homo sapiens, MCF-10A, read-out: Cell growth IC50 MCF10a
Experimental: as §1

MDA-MB-231 cells [2] = assay: Clonogenic growth assay; conditions: Homo sapiens; MDA-MB-231, 48 h treatment then 12 days in fresh media
Experimental: as §1

H3K27me3 and H3K9me3 = assay: Western analysis of global histone marks in MDA-MB-231 cells; conditions: range of doses
Experimental: MDA-MB-231 cells seeded in 6 well plates at a cell density of 3 x 10^5 were treated with HKMTI-1-005 (1–7.5uM) for 48 h. Following lysis in Triton Extraction Buffer (TEB, PBS containing 0.5 % Triton ×100 (v/v), 1/1000 protease inhibitor), nuclei were re-suspended in 0.2 N HCL at a density of 4 x 10^7 nuclei per millilitre and incubated overnight at 4 °C to acid-extract the histones, before being centrifuged at 6500g for 10 min at 4 °C. Protein concentration was determined using the Bradford assay. H3K27me3, H3K9me3, H3K9me2, H3K9me and total H3 protein expression levels in the histone extract samples were determined using Western blot analysis using H3K27me3 (1:1000; Abcam), H3K9me3 (1:1000; Abcam), H3K9me (1:1000) and H3 (1:2000; Abcam) antibodies. After washing, the membrane was incubated with a horseradish peroxidase-labelled secondary antibody (1 h, room temperature). The membrane was incubated for 1 min with 5 mL of Pierce ECL Western blotting substrate (Thermo Scientific). Images were captured using Konica Minolta SRX101A Tabletop X-Ray film processor.

MDA-MB-231 cells [3] = assay: MTT cell viability assay; conditions: Homo sapiens
Experimental: Fig. 1 MTT and mRNA levels in MDA-MB-231 cells after pharmacological inhibition and siRNA knockdown of EZH2 and EHMT2(G9a), individually and in combination. a Expression levels of KRT17, FBX032, JMJD3, EZH2, SPINK1 and EHMT2 were measured by qRT-PCR in the MDA-MB-231 cell line 48 h after transfection with siRNAs targeting EZH2 and EHMT2, both individually and in combination. All measurements were normalised to the fold-change (relative to GAPDH) in the mock transfection control. Error bars represent the mean ± SD of experiment performed in technical triplicate. b Expression levels of KRT17, FBX032, JMJD3 and SPINK1 were measured by qRT-PCR in the MDA-MB-231 cell line treated for 48 h with GSK343, UNC0638, and UNC0638 (at 7.5 μM) with increasing doses of GSK343. Each group has been compared to the untreated sample following normalisation to GAPDH. Error bars represent the mean ± SD of experiment performed in technical triplicate. c MTT assay for cell viability of MDA-MB-231 cells after treatment. MDA-MB-231 cells were seeded in 96 well plates. After 24 h, increasing doses of GSK343, UNC0638 or combination treatments (1, 2.5, 5, 7.5, 10 and 15 μM) were added to cells. Control was media with 0.5 % DMSO. Cell viability was measured by MTT assay after a 48-h treatment and a 24-h proliferation period. Error bars represent the mean ± SEM of five independent repeats
as §1

IC50 (SUDLH8): < 1 µM | IC50 (SC1): 3.71 µM | IC50 (WILL1): 5.6 µM | IC50 (WSU-FSCLL): 3.41 µM | IC50 (DOHH2): 3.26 µM | IC50 (DB): < 1 µM | IC50 (breast cancer cell lines): 2 to 10 µM | IC50 (MDA-MB-231 cells [2]): 0.41 µM | IC50 (MDA-MB-231 cells [3]; MDA-MB-231, MTT (Table 3B), read-out: Cell growth IC50 MDA-MB-231): 4.3 µM | IC50 (MDA-MB-231 cells [3]; MDA-MB-231 (Table 2), read-out: Cell viability (MTT) IC50): 4.3 µM
Structure (SMILES): COc1cc2nc(N3CCN(C)CC3)nc(NC3CCN(Cc4ccccc4)CC3)c2cc1OC [HKMTI-1-005]
Induction of apoptosis measured by Caspase 3/7 activity (MDA-MB-231 cells [1]): induces apoptosis | IC50 (MCF10a): > 15 µM | Global levels of H3K27me3 and H3K9me3 (Western) (H3K27me3 and H3K9me3): reduced
